Literature values as cited in patent publication US20240249808A1, “Physiologically Based Toxicokinetic (PBTK) Modeling for Implant Toxicology” (Cyprus University of Technology, priority 2021, published 2024).

Conditions: parenteral (non-oral) exposure; prolonged or permanent patient exposure; adverse systemic effects except hypersensitivity; CDRH recommended

[Ni] [nickel]
Tolerable Intake (TI) value: 0.5 µg/kg/day
